Four compounds from patent publication US20210115104A1, “AMYLIN ANALOGUES” (Zealand Pharma A/S, priority 2015, published 2021) can be followed below.

pEC50: −log10 of the molar value. Read-outs that look alike come from different tables or passages of the source. *1 amine or outer side, *2 acyl side, *3 side chain or, on linkers, in order; H or OH if unused. Where a SMILES comes first, the peptide text is derived from it. Bridges are numbered along the chain shown (N, C = ends). [ ]: non-standard residue; d: D form. The star is where a group is joined. C20 diacid = O=C(O)CCCCCCCCCCCCCCCCCCC(=O)*; γGlu = O=C(O)[C@H](CCC(=O)[*:2])N[*:1]; Hyp = O=C(O)[C@@H]1C[C@@H](O)CN1; NMeI = CC[C@H](C)[C@H](NC)C(=O)O; Aad = N[C@@H](CCCC(=O)O)C(=O)O; Sar = CNCC(=O)O

Series [1] concerns the target T1, human calcitonin receptor (hCTR2) (Homo sapiens, UniProt P30988).
T1 construct: expressed in transfected cells
T1 sequence (P30988 25-474): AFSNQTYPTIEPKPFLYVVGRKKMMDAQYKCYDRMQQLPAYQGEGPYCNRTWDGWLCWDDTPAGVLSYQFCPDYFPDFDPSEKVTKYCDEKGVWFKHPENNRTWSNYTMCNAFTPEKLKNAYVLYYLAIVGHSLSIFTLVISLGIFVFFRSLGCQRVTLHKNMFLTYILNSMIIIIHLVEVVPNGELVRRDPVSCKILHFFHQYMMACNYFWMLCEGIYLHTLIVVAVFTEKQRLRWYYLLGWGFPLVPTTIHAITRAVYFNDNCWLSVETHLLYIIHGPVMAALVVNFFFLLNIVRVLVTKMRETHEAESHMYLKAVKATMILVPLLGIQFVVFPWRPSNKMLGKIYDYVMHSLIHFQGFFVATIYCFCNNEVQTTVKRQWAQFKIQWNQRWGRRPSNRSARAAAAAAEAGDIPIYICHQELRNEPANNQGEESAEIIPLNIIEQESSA
Description: hCTR2 cAMP assay (AlphaScreen) in COS7 cells. The format is cell-based. In short, it runs like this:
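Stable hCTR2 clone in RAMP-naïve COS7 cells stimulated 15 min at 37 °C with increasing peptide concentrations in Tyrode buffer pH 7.4 containing IBMX and 0.1% casein. cAMP in lysates measured by AlphaScreen; EC50 from 4-parameter logistic fit.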

Series [2] has as its target T2, human amylin receptor 3 (hAMYR3), hCTR2 co-expressed with hRAMP3 (Homo sapiens, UniProt O60896+P30988).
T2 construct: expressed in transfected cells
T2 sequence (P30988 25-474): T1 sequence (P30988 25-474)
T2 sequence (O60896 24-148 partner): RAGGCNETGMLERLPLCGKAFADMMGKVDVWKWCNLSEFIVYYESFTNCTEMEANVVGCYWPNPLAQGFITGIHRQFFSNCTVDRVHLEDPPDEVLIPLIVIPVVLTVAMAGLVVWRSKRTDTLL
Nature of the series: hAMYR3 cAMP assay (AlphaScreen) in COS7 cells. The format is cell-based. The procedure, abridged: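 Stable COS7 clone co-expressing hCTR2 and hRAMP3 was exposed to increasing peptide concentrations in Tyrode buffer (pH 7.4) with 100 µM IBMX and 0.1% casein for 15 min at 37 °C. Lysate cAMP was measured by AlphaScreen; EC50 came from 4-parameter logistic fitting.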
For orientation: Cyclic AMP is a second messenger, typically raised through Gs and lowered through Gi signalling.

Series [3] can be described thus: Assessment of chemical stability (RP-HPLC normalized purity). The series is classed as physicochemical. To be noted: for Normalized purity after 7 days, 40° C., pH 4: pH 4, 0.2 mg/ml; for Normalized purity after 7 days, 40° C., pH 4 / Normalized purity after 7 days, 40° C., pH 6 / Normalized purity after 7 days, 40° C., pH 7.5 / Normalized purity after 7 days, 40° C., pH 9: Table 1; for Normalized purity after 7 days, 40° C., pH 6: pH 6, 0.2 mg/ml; for Normalized purity after 7 days, 40° C., pH 7.5: pH 7.5, 0.2 mg/ml; for Normalized purity after 7 days, 40° C., pH 9: pH 9, 0.2 mg/ml; for Normalized purity pH 4 (Table 5): pH 4, repeat of Example 6 for pairs with/without Asn-Asn at 21-22; for Normalized purity pH 6 (Table 5): pH 6, repeat of Example 6 for pairs with/without Asn-Asn at 21-22; for Normalized purity pH 7.5 (Table 5): pH 7.5, repeat of Example 6 for pairs with/without Asn-Asn at 21-22; for Normalized purity pH 9 (Table 5): pH 9, repeat of Example 6 for pairs with/without Asn-Asn at 21-22. The procedure, abridged: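 Peptides at 0.2 mg/ml in water adjusted to pH 4, 6, 7.5 or 9, incubated at 40° C for 7 days. Main-peak area-% by RP-HPLC (C8 ammonium formate or C18 TFA gradient, UV 220 nm), normalized to T=0 as 100.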

[4] abbreviates: cAMP induction, COS7 cells expressing hCTR2, Table 1, read-out: hCTR2 EC50.
Setting [5] is: cAMP induction, COS7 cells expressing hAMYR3, Table 1, read-out: hAMYR3 EC50.

As usually defined, the pEC50 is the negative decadic logarithm of the EC50, by convention in mol/L. Regarding `CC[C@H](C)[C@@H](C(=O)N[C@@H](CC(C)C)C(=O)N[C@@H](CO)C(=O)N[C@@H](CO)C(=O)N[C@H](C(=O)N[C@@H](CCC(=O)O)C(=O)N[C@H](C(=O)NCC(=O)N[C@@H](CO)C(=O)N[C@@H](CC(N)=O)C(=O)N[C@H](C(=O)N1CCC[C@H]1C(N)=O)[C@@H](C)O)C(C)C)[C@@H](C)O)N(C)C(=O)[C@H](C)NC(=O)CN(C)C(=O)[C@H](Cc1ccccc1)NC(=O)[C@H](CO)NC(=O)[C@H](CO)NC(=O)[C@H](CCCNC(=N)N)NC(=O)[C@H](CCC(N)=O)NC(=O)[C@H](CC(C)C)NC(=O)[C@H](Cc1ccccc1)NC(=O)[C@H](Cc1c[nH]cn1)NC(=O)[C@H](C)NC(=O)[C@H](CC(C)C)NC(=O)[C@H](CCCNC(=N)N)NC(=O)[C@H](CC(=O)O)NC(=O)[C@@H](NC(=O)[C@H](C)NC(=O)[C@@H]1CSSC[C@H](NC(=O)[C@H](CCCNC(=N)N)NC(=O)CC[C@H](NC(=O)CCCCCCCCCCCCCCCCCCC(=O)O)C(=O)O)C(=O)N[C@@H](CCC(N)=O)C(=O)N[C@@H]([C@@H](C)O)C(=O)N[C@@H](C)C(=O)N[C@@H]([C@@H](C)O)C(=O)N1)[C@@H](C)O` [Compound 92, [19CD]-isoGlu-R-C( )-QTAT-C( )-ATDRLAHFLQRSSF-Gly(Me)-A-Ile(Me)-LSSTEVGSNTP-NH2] ({C20 diacid-γGlu}-RCQTATCATDRLAHFLQRSSF[Sar]A[NMeI]LSSTEVGSNTP-NH2; disulfide 2-7), the pEC50 in series [1] (setting [4]) was 10.00. Further, the pEC50 in series [2] (setting [5]) was 9.66. Moreover, in series [3], the “Normalized purity after 7 days, 40° C., pH 4” value is “A (A = >90%)”; the “Normalized purity after 7 days, 40° C., pH 6” value is recorded as “A (A = >90%)”; the “Normalized purity after 7 days, 40° C., pH 7.5” value was “A (A = >90%)”; the “Normalized purity after 7 days, 40° C., pH 9” value was “A (A = >90%)”.

For `CC[C@H](C)[C@@H](C(=O)N[C@@H](CC(C)C)C(=O)N[C@@H](CO)C(=O)N[C@@H](CO)C(=O)N[C@H](C(=O)N[C@@H](CCC(=O)O)C(=O)N[C@H](C(=O)NCC(=O)N[C@@H](CO)C(=O)N[C@@H](CC(N)=O)C(=O)N[C@H](C(=O)N1C[C@H](O)C[C@H]1C(N)=O)[C@@H](C)O)C(C)C)[C@@H](C)O)N(C)C(=O)[C@H](C)NC(=O)CN(C)C(=O)[C@H](Cc1ccccc1)NC(=O)[C@H](CCCNC(=N)N)NC(=O)[C@H](CCC(N)=O)NC(=O)[C@H](CC(C)C)NC(=O)[C@H](Cc1ccccc1)NC(=O)[C@H](CCCC(=O)O)NC(=O)[C@H](C)NC(=O)[C@H](CC(C)C)NC(=O)[C@H](CCCNC(=N)N)NC(=O)[C@H](CC(=O)O)NC(=O)[C@@H](NC(=O)[C@H](C)NC(=O)[C@@H]1CSSC[C@H](NC(=O)[C@H](CCCNC(=N)N)NC(=O)CC[C@H](NC(=O)CCCCCCCCCCCCCCCCCCC(=O)O)C(=O)O)C(=O)N[C@@H](CCC(N)=O)C(=O)N[C@@H]([C@@H](C)O)C(=O)N[C@@H](C)C(=O)N[C@@H]([C@@H](C)O)C(=O)N1)[C@@H](C)O` [Compound 95, [19CD]-isoGlu-R-C( )-QTAT-C( )-ATDRLA-Aad-FLQRF-Gly(Me)-A-Ile(Me)-LSSTEVGSNT-Hyp-NH2] ({C20 diacid-γGlu}-RCQTATCATDRLA[Aad]FLQRF[Sar]A[NMeI]LSSTEVGSNT[Hyp]-NH2; disulfide 2-7), the pEC50 in series [1] (setting [4]) is 9.74. In addition, the negative-log EC50 (pEC50) in series [2] (setting [5]) was 9.70. Also, in series [3], the “Normalized purity after 7 days, 40° C., pH 4” value is reported as “A (A = >90%)”; the “Normalized purity after 7 days, 40° C., pH 6” value is “A (A = >90%)”; the “Normalized purity after 7 days, 40° C., pH 7.5” value is “A (A = >90%)”; the “Normalized purity after 7 days, 40° C., pH 9” value was “A (A = >90%)”.

Turning to `CC[C@H](C)[C@@H](C(=O)N[C@@H](CC(C)C)C(=O)N[C@@H](CO)C(=O)N[C@@H](CO)C(=O)N[C@H](C(=O)N[C@@H](CCC(=O)O)C(=O)N[C@H](C(=O)NCC(=O)N[C@@H](CO)C(=O)N[C@@H](CC(N)=O)C(=O)N[C@H](C(=O)N1C[C@H](O)C[C@H]1C(N)=O)[C@@H](C)O)C(C)C)[C@@H](C)O)N(C)C(=O)[C@H](C)NC(=O)CN(C)C(=O)[C@H](Cc1ccccc1)NC(=O)[C@H](CC(N)=O)NC(=O)[C@H](CC(N)=O)NC(=O)[C@H](CO)NC(=O)[C@H](CO)NC(=O)[C@H](CCCNC(=N)N)NC(=O)[C@H](CCC(N)=O)NC(=O)[C@H](CC(C)C)NC(=O)[C@H](Cc1ccccc1)NC(=O)[C@H](CCCC(=O)O)NC(=O)[C@H](C)NC(=O)[C@H](CC(C)C)NC(=O)[C@H](CCCNC(=N)N)NC(=O)[C@H](CCC(=O)O)NC(=O)[C@@H](NC(=O)[C@H](C)NC(=O)[C@@H]1CSSC[C@H](NC(=O)[C@H](CCCNC(=N)N)NC(=O)CC[C@H](NC(=O)CCCCCCCCCCCCCCCCCCC(=O)O)C(=O)O)C(=O)NCC(=O)N[C@@H]([C@@H](C)O)C(=O)N[C@@H](C)C(=O)N[C@@H]([C@@H](C)O)C(=O)N1)[C@@H](C)O` [Compound 98, [19CD]-isoGlu-R-C( )-GTAT-C( )-ATERLA-Aad-FLQRSSNNF-Gly(Me)-A-Ile(Me)-LSSTEVGSNT-Hyp-NH2, reference compound] ({C20 diacid-γGlu}-RCGTATCATERLA[Aad]FLQRSSNNF[Sar]A[NMeI]LSSTEVGSNT[Hyp]-NH2; disulfide 2-7), in series [1], the pEC50 is 8.14. The same compound had a pEC50 in series [2] of 9.42. Also, in series [3], the “Normalized purity pH 4 (Table 5)” value is given as “A (A = >90%)”, the “Normalized purity pH 6 (Table 5)” value is on record as “A (A = >90%)”, the “Normalized purity pH 7.5 (Table 5)” value is recorded as “B (B = 70-90%)” and the “Normalized purity pH 9 (Table 5)” value is “B (B = 70-90%)”.

As for `CC[C@H](C)[C@@H](C(=O)N[C@@H](CC(C)C)C(=O)N[C@@H](CO)C(=O)N[C@@H](CO)C(=O)N[C@H](C(=O)N[C@@H](CCC(=O)O)C(=O)N[C@H](C(=O)NCC(=O)N[C@@H](CO)C(=O)N[C@@H](CC(N)=O)C(=O)N[C@H](C(=O)N1C[C@H](O)C[C@H]1C(N)=O)[C@@H](C)O)C(C)C)[C@@H](C)O)N(C)C(=O)[C@H](C)NC(=O)CN(C)C(=O)[C@H](Cc1ccccc1)NC(=O)[C@H](CC(N)=O)NC(=O)[C@H](CC(N)=O)NC(=O)[C@H](CO)NC(=O)[C@H](CO)NC(=O)[C@H](CCCNC(=N)N)NC(=O)[C@H](CCC(N)=O)NC(=O)[C@H](CC(C)C)NC(=O)[C@H](Cc1ccccc1)NC(=O)[C@H](Cc1c[nH]cn1)NC(=O)[C@H](C)NC(=O)[C@H](CC(C)C)NC(=O)[C@H](CCCNC(=N)N)NC(=O)[C@H](CCC(=O)O)NC(=O)[C@@H](NC(=O)[C@H](C)NC(=O)[C@@H]1CSSC[C@H](NC(=O)[C@H](CCCNC(=N)N)NC(=O)CC[C@H](NC(=O)CCCCCCCCCCCCCCCCCCC(=O)O)C(=O)O)C(=O)N[C@@H](CCC(N)=O)C(=O)N[C@@H]([C@@H](C)O)C(=O)N[C@@H](C)C(=O)N[C@@H]([C@@H](C)O)C(=O)N1)[C@@H](C)O` [Compound 99, [19CD]-isoGlu-R-C( )-QTAT-C( )-ATERLAHFLQRSSNNF-Gly(Me)-A-Ile(Me)-LSSTEVGSNT-Hyp-NH2, reference compound] ({C20 diacid-γGlu}-RCQTATCATERLAHFLQRSSNNF[Sar]A[NMeI]LSSTEVGSNT[Hyp]-NH2; disulfide 2-7), the pEC50 in series [1] was 8.42. The pEC50 in series [2] is 9.23. For the same compound, in series [3], the “Normalized purity pH 4 (Table 5)” value was “A (A = >90%)”, the “Normalized purity pH 6 (Table 5)” value is on record as “A (A = >90%)”, the “Normalized purity pH 7.5 (Table 5)” value was “B (B = 70-90%)” and the “Normalized purity pH 9 (Table 5)” value is listed as “B (B = 70-90%)”.
